Test results taken from patent publication US11059778B2, “Cannabinoid receptor CB2 ligand 4-(aminomethyl)-N, N-dialkylanilines” (UNIVERSITY OF PITTSBURGH—OF THE COMMONWEALTH SYSTEM OF …, priority 2015, dated 2021).
“Also recorded” adds a separate entry of the source.

Experiments:
[1] = biological target: T1, CHO cells expressing human CB2 receptors (Homo sapiens, UniProt P34972); assay: cell-based LANCE cAMP assay; conditions: forskolin-stimulated, RO-20-1724 present, FIG. 4
T1 construct: expressed in transfected cells; host or cells: CHO cells, stably transfected
T1 sequence (P34972 whole entry): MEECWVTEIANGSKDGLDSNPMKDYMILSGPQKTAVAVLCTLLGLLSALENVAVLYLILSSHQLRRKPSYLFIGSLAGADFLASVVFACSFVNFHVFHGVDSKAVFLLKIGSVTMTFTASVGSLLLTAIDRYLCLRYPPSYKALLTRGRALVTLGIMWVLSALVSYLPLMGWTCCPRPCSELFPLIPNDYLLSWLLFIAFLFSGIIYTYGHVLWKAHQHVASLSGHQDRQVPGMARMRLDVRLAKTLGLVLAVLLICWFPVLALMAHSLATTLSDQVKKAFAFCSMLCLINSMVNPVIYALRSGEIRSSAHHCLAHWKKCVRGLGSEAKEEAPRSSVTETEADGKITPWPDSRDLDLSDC
Description: FIG. 4 relates to cAMP Assay Results. LANCE signal of CB2 ligands. Stably transfected CHO cells expressing human CB2 receptors were utilized to carry out the LANCE cAMP assay. […] Data is mean±SEM of all experiments of two or more performed in triplicate.
(§1) The antibodies are labeled with Alexa Fluor dye that is sensitive to energy emissions. Briefly, the cell-based LANCE cAMP assays were performed on 384-well ProxiPlates using CHO cells stably expressing the CB2 receptors at density of 2×10^3 cells per well in 5 μL of RPMI-1640 medium (Gibco Laboratories, Grand Island, N.Y.) containing 1% dialyzed FBS, 25 mM HEPES, […], and 200 μg/ml of […]. After incubation overnight, 2.5 μL of cAMP antibody and RO20-1724 (a phosphodiesterase inhibitor) in stimulation buffer (DPBS 1×, containing 0.1% BSA) was added to each well, followed by the addition of 2.5 μL of the compound plus the forskolin complex (an adenyl cyclase activator). After incubation at room temperature for 45 minutes, 10 μL of detection buffer was added into each well. The plate was then incubated at room temperature for 1 hour. The plate was then measured in a Synergy H1 hybrid reader (BioTek) with excitation at 340 nm and emission at 665 nm. The results represent at least two independent experiments each in triplicates. EC50 values were determined by nonlinear regression dose-response curve (GraphPad Prism 5).
as §1, with “Cyclic AMP levels were measured by performing the cell-based LANCE cAMP-384 kit assay (PerkinElmer) as previously described 13-14. The assay is based on the competition between the europium-labeled cAMP tracer complex and sample cAMP for binding sites on cAMP-specific antibodies. The antibodies” for “The antibodies”
The LANCE cAMP assay was carried out to measure the functional activities of our synthesized CB2 selective ligands as previously described 14. Briefly, the assay was performed on 384-well plates using CHO cells stably expressing CB2 receptors in the presence of phosphodiesterase inhibitor, RO-20-1724 and adenyl cyclase activator, forskolin.

[2] = test system: RANKL-induced osteoclast differentiation of C57BL/6 mouse bone marrow cells; assay: In-vitro osteoclast formation assay (RANKL-induced, TRAP staining); assay type: cell-based; conditions: for effect on RANKL-induced osteoclast formation (in words): RANKL 100 ng/mL, M-CSF 30 ng/mL, concentration series up to 10 μM, FIG. 5; for inhibition at 10 µM: Mus musculus, Osteoclast, read-out: inhibition rates of osteoclast formation
Description: FIGS. 5A and 5B relate to […]. Anti-osteoclastogenesis activity of the synthesized CB2 ligands. […] FIG. 5B: BM cells were seeded at a density of 2×10^5 cells/well in 96-well plates and treated with or without RANKL (100 ng/mL) and M-CSF (30 ng/mL). CB2 compounds were added at the indicated concentrations for 10 days and stained for TRAP expression. Data is the mean of three experiments carried out in triplicates. (B) Microscopic photographs of cells for compound 15 (magnification 100×).
Bone marrow (BM) cells were obtained from the tibia and femur of 4- to 6-week old C57BL/6 mice. To examine the effects of our selective CB2 ligands, BM cells were seeded at 2×10^5 cells/well in 96-well plates in 100 μIL/well Alpha-MEM media (Gibco Laboratories, Grand Island, N.Y.) containing 15% fetal bovine serum (FBS) (Gibco Laboratories, Grand Island, N.Y.), 30 ng/mL M-CSF (R&D Systems, USA), and 100 ng/mL RANKL (ProsPec, East Brunswick, N.J.). Plates were cultured for 7-10 days. Half media was changed every third day with or without CB2 ligands. At the end of the experiment, cells were fixed and stained with tartrate-resistant acid […] (TRAP) (Sigma-Aldrich, USA), according to manufacturer's protocol. TRAP-positive cells with ≥3 nuclei were counted as osteoclasts ((a) Feng, R., et al., SDX-308, a nonsteroidal anti-inflammatory agent, inhibits NF-kappaB activity, resulting in strong inhibition of osteoclast formation/activity and multiple myeloma cell growth. Blood 2007, 109 (5), 2130-8; (b) Yu, M., et al., Curcumol suppresses RANKL-induced osteoclast formation by attenuating the JNK signaling pathway. Biochem Biophys Res Commun 2014, 447 (2), 364-70; (c) Feng, R., et al., KD5170, a novel mercaptoketone-based histone deacetylase inhibitor, exerts antimyeloma effects by DNA damage and mitochondrial signaling. Mol Cancer Ther 2008, 7 (6), 1494-505.).

CB2 functional activity (LANCE cAMP signal) [1] | Structure (SMILES) | effect on RANKL-induced osteoclast formation (in words) [2] | inhibition at 10 µM [2]
CB2 selective agonist | CCN(CC)c1ccc(CN(Cc2cc(OC)c(OC)c(OC)c2)C(=O)c2cccs2)cc1 [Compound 11, N-(4-(diethylamino)benzyl)-N-(3,4,5-trimethoxybenzyl)thiophene-2-carboxamide] | induction of osteoclast formation at higher doses; also recorded: low effect in inducing the osteoclast formation at higher doses | 
inverse agonists | CCN(CC)c1ccc(CN(Cc2cc(OC)c(OC)c(OC)c2)S(=O)(=O)c2ccc(C=O)cc2)cc1 [Compound 18, N-(4-(diethylamino)benzyl)-4-formyl-N-(3,4,5-trimethoxybenzyl)benzenesulfonamide] | concentration-dependent inhibition of osteoclast formation; also recorded: inhibited the RANKL-induced osteoclast differentiation in a dose-dependent manner | > 95%

Structure (SMILES) | CB2 functional activity (LANCE cAMP signal) [1] | effect on RANKL-induced osteoclast formation (in words) [2] | inhibition at 10 µM [2]
CCN(CC)c1ccc(CN(Cc2cc(OC)c(OC)c(OC)c2)S(=O)(=O)/C=C/c2ccccc2)cc1 [Compound 15, (E)-N-(4-(diethylamino)benzyl)-2-phenyl-N-(3,4,5-trimethoxybenzyl)ethene-1-sulfonamidebenzenesulfonamide] | inverse agonists | concentration-dependent inhibition of osteoclast formation; also recorded: inhibited the RANKL-induced osteoclast differentiation in a dose-dependent manner | > 95%
